Reference: patent publication US4039574A, “13-Hydroxy-15-deoxy-prostaglandins” (American Cyanamid Company, priority 1975, dated 1977)

Tested on: basal gastric acid secretion
Test: Inhibition of Gastric Acid Secretion in the Acute Gastric Fistula Rat (basal gastric acid secretion)
Assay type: in vivo, Female Sprague-Dawley rats
Conditions: 10 mg./kg., vs concurrent vehicle control

SMILES	% inhibition of total acid output after 60 minutes (intraduodenal route)	% inhibition of total acid output after 120 minutes (intraduodenal route)	% inhibition of total acid output after 60 minutes (oral route of administration)	% inhibition of total acid output after 120 minutes (oral route of administration)
CCCCCCCC(O)[C@@H]1CCC(=O)[C@H]1CCCCCCC(=O)O (relative stereo) [trans-2-(6-carboxyhexyl)-3-(1-hydroxyoctyl)cyclopentanone]	29%	78%	–	–
CCCCCCCC(O)C1C(O)CC(=O)C1CC=CCCCC(=O)O (stereo not drawn) [2α-(6-carboxyhex-2-cis-enyl)-3β-(1-hydroxyoctyl)-4-hydroxycy] [2α-(6-carboxyhex-2-cis-enyl)-3β-(1-hydroxyoctyl)-4-hydroxycyclopentanone]	81%	20%	–	–
CCCCCCCC(O)C1C(O)CC(=O)C1CC=CCCCC(=O)O (stereo not drawn) [2β-(6-carboxyhex-2-cis-enyl)-3β-(1-hydroxyoctyl)-4-hydroxycy] [2β-(6-carboxyhex-2-cis-enyl)-3β-(1-hydroxyoctyl)-4-hydroxycyclopentanone]	100%	94%	1%	56%
